Experimental data taken from article PMC6856185, “Piezo1 channel activation mimics high glucose as a stimulator of insulin release” (Scientific Reports, 2019).

Target: T1, Piezo1 (Rattus norvegicus, UniProt Q0KL00)
T1 construct: native channel in INS-1 832/13 and BRIN-BD11 rat β-cell lines
Assay: fura-2 Ca2+ influx and whole-cell patch-clamp in INS-1 cells; Piezo1 siRNA reduced Yoda1-induced insulin release
Assay type: cell-based

T1 sequence (Q0KL00 whole entry): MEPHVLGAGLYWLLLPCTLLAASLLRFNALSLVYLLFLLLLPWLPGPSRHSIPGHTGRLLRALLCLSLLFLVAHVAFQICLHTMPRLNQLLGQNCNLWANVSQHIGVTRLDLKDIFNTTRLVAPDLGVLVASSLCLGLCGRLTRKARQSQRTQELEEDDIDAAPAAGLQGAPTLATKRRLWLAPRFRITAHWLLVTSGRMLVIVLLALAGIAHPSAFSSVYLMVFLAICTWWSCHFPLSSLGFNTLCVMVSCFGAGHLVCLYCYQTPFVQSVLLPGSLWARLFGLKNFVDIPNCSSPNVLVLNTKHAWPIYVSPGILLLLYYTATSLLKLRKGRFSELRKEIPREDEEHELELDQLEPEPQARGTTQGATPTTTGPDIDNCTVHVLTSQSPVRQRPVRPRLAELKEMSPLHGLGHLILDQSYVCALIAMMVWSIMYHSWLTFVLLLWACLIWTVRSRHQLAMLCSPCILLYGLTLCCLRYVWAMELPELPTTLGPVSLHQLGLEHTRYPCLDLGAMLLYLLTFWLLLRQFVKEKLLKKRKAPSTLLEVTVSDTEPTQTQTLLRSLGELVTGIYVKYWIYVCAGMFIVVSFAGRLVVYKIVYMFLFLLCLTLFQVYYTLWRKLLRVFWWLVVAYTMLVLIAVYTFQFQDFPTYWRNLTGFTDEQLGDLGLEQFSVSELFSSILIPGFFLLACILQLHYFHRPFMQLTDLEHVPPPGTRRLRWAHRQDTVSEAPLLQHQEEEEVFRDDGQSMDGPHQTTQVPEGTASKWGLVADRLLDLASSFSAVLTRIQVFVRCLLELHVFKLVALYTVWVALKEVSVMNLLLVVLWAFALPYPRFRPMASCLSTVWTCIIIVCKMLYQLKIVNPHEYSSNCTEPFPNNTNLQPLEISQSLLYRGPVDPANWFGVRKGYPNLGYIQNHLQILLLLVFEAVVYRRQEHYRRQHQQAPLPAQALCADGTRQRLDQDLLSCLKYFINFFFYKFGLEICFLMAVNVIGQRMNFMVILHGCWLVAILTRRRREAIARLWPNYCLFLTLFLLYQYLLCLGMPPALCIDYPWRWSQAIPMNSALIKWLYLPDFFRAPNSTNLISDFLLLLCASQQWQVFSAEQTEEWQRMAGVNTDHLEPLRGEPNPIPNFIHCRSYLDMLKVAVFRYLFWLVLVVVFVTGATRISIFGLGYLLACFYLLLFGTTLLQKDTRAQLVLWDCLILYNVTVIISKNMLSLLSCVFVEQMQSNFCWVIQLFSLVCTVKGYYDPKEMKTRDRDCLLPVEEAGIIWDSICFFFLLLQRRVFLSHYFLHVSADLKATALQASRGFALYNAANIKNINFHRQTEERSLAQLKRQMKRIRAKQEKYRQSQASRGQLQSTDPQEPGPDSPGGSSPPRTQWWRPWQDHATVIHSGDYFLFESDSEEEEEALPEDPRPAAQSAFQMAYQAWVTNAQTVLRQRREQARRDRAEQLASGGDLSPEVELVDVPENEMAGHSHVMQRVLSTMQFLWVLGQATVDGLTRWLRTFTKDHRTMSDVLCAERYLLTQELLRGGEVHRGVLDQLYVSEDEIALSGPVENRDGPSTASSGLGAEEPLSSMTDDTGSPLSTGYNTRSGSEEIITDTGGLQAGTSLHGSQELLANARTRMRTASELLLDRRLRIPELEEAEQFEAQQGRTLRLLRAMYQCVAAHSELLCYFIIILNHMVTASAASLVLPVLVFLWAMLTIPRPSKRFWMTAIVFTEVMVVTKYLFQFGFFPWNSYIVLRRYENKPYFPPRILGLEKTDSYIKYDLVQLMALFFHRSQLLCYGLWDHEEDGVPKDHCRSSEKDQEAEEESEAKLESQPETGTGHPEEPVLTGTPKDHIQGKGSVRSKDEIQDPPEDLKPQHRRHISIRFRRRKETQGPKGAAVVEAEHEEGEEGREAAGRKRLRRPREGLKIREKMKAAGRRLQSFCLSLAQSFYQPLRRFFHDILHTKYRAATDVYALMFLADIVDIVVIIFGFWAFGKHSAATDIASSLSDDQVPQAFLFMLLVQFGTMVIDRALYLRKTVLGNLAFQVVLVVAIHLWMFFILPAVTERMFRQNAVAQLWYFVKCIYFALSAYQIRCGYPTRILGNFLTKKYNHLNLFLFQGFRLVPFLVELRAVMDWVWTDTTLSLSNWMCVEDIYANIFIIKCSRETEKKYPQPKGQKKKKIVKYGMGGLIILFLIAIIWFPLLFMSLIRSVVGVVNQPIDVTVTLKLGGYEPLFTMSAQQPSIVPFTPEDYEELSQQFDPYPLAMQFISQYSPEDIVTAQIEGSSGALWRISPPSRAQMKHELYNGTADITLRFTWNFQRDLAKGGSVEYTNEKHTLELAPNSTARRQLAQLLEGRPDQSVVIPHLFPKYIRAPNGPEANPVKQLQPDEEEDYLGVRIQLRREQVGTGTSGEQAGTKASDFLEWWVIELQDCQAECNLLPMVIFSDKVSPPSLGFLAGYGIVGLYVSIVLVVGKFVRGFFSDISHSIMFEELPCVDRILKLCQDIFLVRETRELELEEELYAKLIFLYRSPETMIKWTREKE

Question: Which EC50 does the source give for Clc1cccc(Cl)c1CSc1nnc(-c2cnccn2)s1 [Yoda1] here?
Answer: ~4 µM
